Measurements: patent publication US20070105836A1, “Prodrugs of muscarinic agonists and methods of treatment of neuropsychiatric disorders” (priority 2005, published 2007)

Assay: Conversion of prodrugs to NDMC in vivo (plasma and brain levels of NDMC by LC-MS/MS after oral dosing)
Method: Male, Sprauge-Dawly rats (200-225 grams, Harlan, San Diego, Calif.) implanted with jugular vein cannulae served as experimental subjects. Rats were fasted for approximately 16 hours and then dosed orally with one of several test compounds. All test compounds were administered at a fixed dose of 10 mg/kg (freebase) in a volume of 1 mL/kg. Venous blood samples were collected 0, 30, 60 and 120 min following test compound administration. Samples were placed into heparinized tubes and centrifuged to obtain plasma. Additionally, whole brains were harvested at the 120 min time point in order to determine brain levels of test compounds. Plasma samples, brains and any remaining dosing solutions were stored at −80° C. until analyzed.
The thawed plasma samples were processed by protein precipitation using acetonitrile. Following centrifugation the supernatant was diluted appropriately and transferred to the analysis deep well plate for analysis. […]
Calibration samples and samples were analyzed by LC-MS/MS using positive electrospray ionization. […]
Samples were analyzed using multiple reaction monitoring (MRM). […]
4.0.1 and the area under the curve (AUC0-120) of NDMC was calculated. In vivo conversion to NDMC was calculated from the dose-normalized ratio of AUC0-120 of NDMC following administration of pro-drug and NDMC, respectively.

## Clc1ccc2c(c1)N=C(N1CCNCC1)c1ccccc1N2 [NDMC, N-desmethylclozapine]
Male Sprague-Dawley rats, fasted, oral 10 mg/kg (freebase) of compound administered, plasma 0-120 min
  Plasma AUC(0-120 min) of NDMC: 1.298 µM·h
rats, oral 10 mg/kg, whole brain at 120 min, n = 3
  Mean brain concentration of NDMC at 120 min (SD): 255 (56) nmol/(kg)
